We go through eight compounds from patent US10781184B2, “Substituted benzazinones as antibacterial compounds” (GlaxoSmithKline Intellectual Property Development Limited, priority 2015, dated 2020).

Structures are written as SMILES. Converted amounts (≈) assume the structure as drawn. A value given as a limit tells only on which side of the number the result lay.

One assay has as its system P. aeruginosa PA01. The assay can be described thus: Minimum Inhibitory Concentration Assay (broth microdilution, CLSI). In kind it is cell-based. To be noted: Pseudomonas aeruginosa; strain PA01, broth microdilution; read-out: P. aeruginosa PA01 MIC. In a few lines: (§1)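 CLSI broth microdilution for aerobic bacteria; compounds serially diluted in the recommended broth over a final range of 0.125–128 mcg/mL, final DMSO below 1%. MIC read as the lowest concentration inhibiting visible growth.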
(Dilution methods test growth across graded concentrations, often in twofold steps.)

Another assay has as its system K. pneumoniae 1161486. The description is as above. Type of assay: cell-based. To be noted: Klebsiella pneumoniae; strain 1161486, broth microdilution; read-out: K. pneumoniae 1161486 MIC. The gist of the method: as §1
Another assay deals with E. coli 7623. The assay is described as above. In kind it is cell-based. Conditions: Escherichia coli; strain 7623, broth microdilution; read-out: E. coli 7623 MIC. The gist of the method:
as §1

Assay [1] concerns the target T1, Untagged Pseudomonas LpxC (Pseudomonas aeruginosa, UniProt P47205).
T1 construct: made in house; host or cells: E. coli
T1 sequence (P47205 1-303): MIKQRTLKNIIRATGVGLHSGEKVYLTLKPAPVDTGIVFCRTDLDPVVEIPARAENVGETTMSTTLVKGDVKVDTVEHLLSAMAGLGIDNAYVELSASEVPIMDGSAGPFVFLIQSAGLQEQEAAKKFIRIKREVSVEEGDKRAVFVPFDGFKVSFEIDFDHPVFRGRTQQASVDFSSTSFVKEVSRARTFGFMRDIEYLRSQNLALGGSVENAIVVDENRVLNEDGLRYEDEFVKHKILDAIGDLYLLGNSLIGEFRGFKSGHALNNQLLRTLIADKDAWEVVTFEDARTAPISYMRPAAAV
In words: P. aeruginosa Enzymatic Assay (LpxC deacetylase, RapidFire MS). In kind it is biochemical. From the text: P. aeruginosa Enzymatic Assay
Untagged Pseudomonas LpxC was expressed in E. coli from Psuedomonas aeruginosa PAO1 and purified from Q-Sepharose 1 and Q-Sepharose 2 columns. UDP-3-O—(R-3-hydroxymyristoyl)-N-Acetylglucosamine Substrate was obtained through a custom synthesis from Alberta Innovates Technology Futures.
Untagged Pseudomonas LpxC is a deacetylase, which can remove an acetyl-group from UDP-3-O—(R-3-hydroxymyristoyl)-N-Acetylglucosamine to result in a product that is 42 Daltons less than the original acetylated substrate. Direct detection of the deactylated product and acetylated substrate is accomplished through an Agilent RapidFire v. 3.4/Sciex 4000 Q-Trap RF-MS instrument.
Following a 30 minute incubation, 20 μL of 2× substrate [7.680 buffer+5 uL of UDP-3-O—(R-3-hydroxymyristoyl)-N-Acetylglucosamine (at 10 mM Stock)] was added and incubated for 25 minutes. 10 uL of 1N HCl was added to quench the reaction. The plate was loaded onto the Agilent RapidFire v. 3.4/Sciex 4000 Q-Trap RF-MS instrument for analysis, using a C4 SPE cartridge and 2 mM ammonium acetate in 100 v/v water as the aqueous eluent and 5 mM ammonium acetate in […] as the organic eluent. For dose response experiments, % conversion were determined from the substrate and product analytes and normalized data were fit by ABASE/XC50 using the equation y=a+(b−a)/(1+(10^x/10^c)^d), where a is the minimum % activity, b is the maximum % activity, c is the pIC50, and d is the Hill slope. ^1Langsdorf, Erik F. et al. Screening for Antibacterial Inhibitors of the UDP-3-O—(R-3-Hydroxymyristoyl)-N-Acetylglucosamine Deacetylase (LpxC) Using a High-Throughput Mass

The target in another assay is T2, Untagged E. coli LpxC (Escherichia coli, UniProt P0A725).
T2 construct: Untagged E. Coli LpxC 1-300 was expressed in E. Coli; made in house; host or cells: E. coli
T2 sequence (P0A725 1-300): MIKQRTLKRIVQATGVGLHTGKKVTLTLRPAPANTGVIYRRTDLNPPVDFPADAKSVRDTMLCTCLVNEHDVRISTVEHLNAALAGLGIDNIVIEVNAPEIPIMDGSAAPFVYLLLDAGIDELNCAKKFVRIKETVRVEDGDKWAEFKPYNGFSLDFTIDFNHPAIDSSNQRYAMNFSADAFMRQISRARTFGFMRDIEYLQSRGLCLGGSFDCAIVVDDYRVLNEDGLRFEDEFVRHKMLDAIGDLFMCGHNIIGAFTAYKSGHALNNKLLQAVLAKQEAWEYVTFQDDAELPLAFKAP
The assay can be described thus: E. coli Enzyme Assay (LpxC deacetylase, RapidFire MS). In kind it is biochemical. To be noted: read-out: E. coli plC50 (converted). The text has this: Untagged E. Coli LpxC 1-300 was expressed in E. Coli and purified with NiNTA Agarose, Superdex 200 and Mono Q columns. UDP-3-O—(R-3-hydroxymyristoyl)-N-Acetylglucosamine Substrate was obtained through a custom synthesis from Alberta Innovates Technology Futures. Method Untagged E. coli LpxC is a deacetylase, which can remove an acetyl-group from UDP-3-O—(R-3-hydroxymyristoyl)-N-Acetylglucosamine (m/z 832.1-385) to result in a product (m/z 790.3→385) that is 42 Daltons less than the original acetylated substrate. Direct detection of the deacetylated product and acetylated substrate was accomplished through an Agilent RapidFire v. 3.4/Sciex 4000 Q-Trap RF-MS instrument. […] Following a 30 minute preincubation, 20 μL of 2× substrate [2 μM final concentration; 39.984 mL buffer+16 μL of UDP-3-O—(R-3-hydroxymyristoyl)-N-Acetylglucosamine (at 10 mM Stock)] was added and incubated for 25 minutes. The reaction was quenched by the addition of 10 μL of 1N HCl. The plate was loaded onto the Agilent RapidFire v. 3.4/Sciex 4000 Q-Trap RF-MS instrument for analysis [C4 SPE cartridge, 2 mM ammonium acetate in 100 v/v water as the aqueous eluent and 5 mM ammonium acetate in 25% v/v/25% v/v/50% v/v acetonitrile/acetone/water as the organic eluent]. For dose response experiments % conversion were determined from the substrate and product extracted ion chromatogram (XIC) areas and normalized to the assay high and low controls. Normalized data were fit by ActivityBase XE using the equation y=a+(b−a)/(1+(10^x/10^c)^d), where a is the minimum % activity, b is the maximum % activity, c is the pIC50, and d is the Hill slope. ^1Langsdorf, Erik F. et al. Screening for Antibacterial Inhibitors of the UDP-3-O—(R-3-Hydroxymyristoyl)-N-Acetylglucosamine Deacetylase (LpxC) Using a High-Throughput Mass Spectroscopy Assay. See, J. Biomol. Screen. 2010, 15, 52-61. Minimum Inhibitory Concentration Assay

Take `Cc1ccc(-c2cc(F)c3c(=O)n(CC[C@](C)(C(=O)NO)S(C)(=O)=O)cnc3c2)cc1` [Example 17, (2R)-4-[5-fluoro-7-(4-methylphenyl)-4-oxo-3,4-dihydroquinazolin-3-yl]-N-hydroxy-2-methanesulfonyl-2-methylbutanamide]: the MIC (commonly the lowest concentration found to suppress growth) stood at 16 µg/mL (≈ 35.8 µM) in the assay on P. aeruginosa PA01, 1 µg/mL (≈ 2.23 µM) in the assay on K. pneumoniae 1161486 and 0.25 µg/mL (≈ 0.559 µM) in the assay with E. coli 7623. Also, the IC50 in assay [1] is 1 nM.
`C[C@@](CCn1cnc2cc(-c3ccc(CCN4CCOCC4)cc3)ccc2c1=O)(C(=O)NO)S(C)(=O)=O` [Example 42, (2R)—N-hydroxy-2-methanesulfonyl-2-methyl-4-(7-{4-[2-(morpholin-4-yl)ethyl]phenyl}-4-oxo-3,4-dihydroquinazolin-3-yl)butanamide]: the MIC with P. aeruginosa PA01 came to 2 µg/mL (≈ 3.78 µM); in the assay on K. pneumoniae 1161486, 0.5 µg/mL (≈ 0.946 µM); in the assay on E. coli 7623 it was 0.25 µg/mL (≈ 0.473 µM). For the same compound, on Untagged E. coli LpxC, the IC50 was 1 nM.
In the case of `C[C@@](CCn1ccc2cc(-c3ccc(CN4CCOCC4)cc3)ccc2c1=O)(C(=O)NO)S(C)(=O)=O` [Example 64, (2R)—N-hydroxy-2-methanesulfonyl-2-methyl-4-(6-{4-[(morpholin-4-yl)methyl]phenyl}-1-oxo-1,2-dihydroisoquinolin-2-yl)butanamide], the MIC with P. aeruginosa PA01 was 0.5 µg/mL (≈ 0.973 µM); in the assay on K. pneumoniae 1161486 it was 0.25 µg/mL (≈ 0.487 µM); in the assay with E. coli 7623, below 0.03 µg/mL. Also, on Untagged E. coli LpxC, the IC50 was 1 nM.
As for `COC(C)(C)CNCc1ccc(-c2ccc3c(=O)n(CC[C@](C)(C(=O)NO)S(C)(=O)=O)ccc3c2)c(F)c1` [Example 68, (2R)-4-[6-(2-fluoro-4-{[(2-methoxy-2-methylpropyl)amino]methyl}phenyl)-1-oxo-1,2-dihydroisoquinolin-2-yl]-N-hydroxy-2-methanesulfonyl-2-methylbutanamide], the MIC in the assay with P. aeruginosa PA01 was 2 µg/mL (≈ 3.65 µM); in the assay on K. pneumoniae 1161486, 0.5 µg/mL (≈ 0.913 µM); in the assay on E. coli 7623, 0.125 µg/mL (≈ 0.228 µM). For the same compound, on Untagged E. coli LpxC, the IC50 is 1 nM.
On the same counts, the results for `CN(C)Cc1ccc(-c2ccc3c(=O)n(CC[C@](C)(C(=O)NO)S(C)(=O)=O)ccc3c2)c(F)c1F` [Example 69, (2R)-4-(6-{4-[(dimethylamino)methyl]-2,3-difluorophenyl}-1-oxo-1,2-dihydroisoquinolin-2-yl)-N-hydroxy-2-methanesulfonyl-2-methylbutanamide] are 1 µg/mL (≈ 1.97 µM), 1 µg/mL (≈ 1.97 µM), 0.125 µg/mL (≈ 0.246 µM) and 1 nM.
In the case of `CCOCCNCc1ccc(-c2ccc3c(=O)n(CC[C@](C)(C(=O)NO)S(C)(=O)=O)ccc3c2)c(F)c1` [Example 72, (2R)-4-[6-(4-{[(2-ethoxyethyl)amino]methyl}-2-fluorophenyl)-1-oxo-1,2-dihydroisoquinolin-2-yl]-N-hydroxy-2-methanesulfonyl-2-methylbutanamide], the figures for the MIC in the assay with P. aeruginosa PA01, in the assay on K. pneumoniae 1161486 and in the assay with E. coli 7623 were 1 µg/mL (≈ 1.87 µM), 0.25 µg/mL (≈ 0.468 µM) and 0.125 µg/mL (≈ 0.234 µM), respectively. Besides, at Untagged E. coli LpxC, the IC50 was 1 nM.
With `C[C@@](CCn1ccc2cc(-c3ccc(CNC4CC4)cc3)ccc2c1=O)(C(=O)NO)S(C)(=O)=O` [Example 75, (2R)-4-(6-{4-[(cyclopropylamino)methyl]phenyl}-1-oxo-1,2-dihydroisoquinolin-2-yl)-N-hydroxy-2-methanesulfonyl-2-methylbutanamide], the MIC turned out to be 0.25 µg/mL (≈ 0.517 µM) with P. aeruginosa PA01, 0.063 µg/mL (≈ 0.13 µM) in the assay with K. pneumoniae 1161486 and 0.06 µg/mL (≈ 0.124 µM) in the assay on E. coli 7623. Also, the IC50 in assay [1] is 1 nM.
On the same counts, the results for `C[C@@](CCN1CCc2cc(-c3ccccc3F)ccc2C1=O)(C(=O)NO)S(C)(=O)=O` [Example 91, (2R)-4-[6-(2-fluorophenyl)-1-oxo-1,2,3,4-tetrahydroisoquinolin-2-yl]-N-hydroxy-2-methanesulfonyl-2-methylbutanamide] are 4 µg/mL (≈ 9.21 µM), 0.5 µg/mL (≈ 1.15 µM), 0.5 µg/mL (≈ 1.15 µM) and 1 nM.
